Measured values: patent US12539292B2, “BRM targeting compounds and associated methods of use” (Arvinas Operations, Inc., priority 2018, dated 2026)
Like-named read-outs stand apart in the source and are kept apart here.

Target: T1, BRM (Homo sapiens, UniProt P51531)
T1 construct: In-Cell Western Screen of BRM Degradation in SW1573 Cells; endogenous in cells; host or cells: SW1573
Assay: In-cell Western screen of BRM degradation in SW1573 cells (Dmax and DC50)
Assay type: cell-based
How it was run: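 SW1573 cells were treated overnight (18-20 hours) with compound at 0.1% final DMSO. They were then PFA-fixed, permeabilised with Triton X-100 and immunostained with 800 nm/680 nm secondary antibodies. BRM signal was quantified by LI-COR in-cell Western imaging to derive Dmax and DC50.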

[1] = BRM degradation, SW1573 cells, read-out: DC50
[2] = target protein degradation, read-out: BRM DC50
[3] = BRM degradation, SW1573 cells, Table 2D, read-out: *DC50
[4] = BRM degradation, SW1573 cells, read-out: Dmax (% degraded)

T1 sequence (P51531 whole entry): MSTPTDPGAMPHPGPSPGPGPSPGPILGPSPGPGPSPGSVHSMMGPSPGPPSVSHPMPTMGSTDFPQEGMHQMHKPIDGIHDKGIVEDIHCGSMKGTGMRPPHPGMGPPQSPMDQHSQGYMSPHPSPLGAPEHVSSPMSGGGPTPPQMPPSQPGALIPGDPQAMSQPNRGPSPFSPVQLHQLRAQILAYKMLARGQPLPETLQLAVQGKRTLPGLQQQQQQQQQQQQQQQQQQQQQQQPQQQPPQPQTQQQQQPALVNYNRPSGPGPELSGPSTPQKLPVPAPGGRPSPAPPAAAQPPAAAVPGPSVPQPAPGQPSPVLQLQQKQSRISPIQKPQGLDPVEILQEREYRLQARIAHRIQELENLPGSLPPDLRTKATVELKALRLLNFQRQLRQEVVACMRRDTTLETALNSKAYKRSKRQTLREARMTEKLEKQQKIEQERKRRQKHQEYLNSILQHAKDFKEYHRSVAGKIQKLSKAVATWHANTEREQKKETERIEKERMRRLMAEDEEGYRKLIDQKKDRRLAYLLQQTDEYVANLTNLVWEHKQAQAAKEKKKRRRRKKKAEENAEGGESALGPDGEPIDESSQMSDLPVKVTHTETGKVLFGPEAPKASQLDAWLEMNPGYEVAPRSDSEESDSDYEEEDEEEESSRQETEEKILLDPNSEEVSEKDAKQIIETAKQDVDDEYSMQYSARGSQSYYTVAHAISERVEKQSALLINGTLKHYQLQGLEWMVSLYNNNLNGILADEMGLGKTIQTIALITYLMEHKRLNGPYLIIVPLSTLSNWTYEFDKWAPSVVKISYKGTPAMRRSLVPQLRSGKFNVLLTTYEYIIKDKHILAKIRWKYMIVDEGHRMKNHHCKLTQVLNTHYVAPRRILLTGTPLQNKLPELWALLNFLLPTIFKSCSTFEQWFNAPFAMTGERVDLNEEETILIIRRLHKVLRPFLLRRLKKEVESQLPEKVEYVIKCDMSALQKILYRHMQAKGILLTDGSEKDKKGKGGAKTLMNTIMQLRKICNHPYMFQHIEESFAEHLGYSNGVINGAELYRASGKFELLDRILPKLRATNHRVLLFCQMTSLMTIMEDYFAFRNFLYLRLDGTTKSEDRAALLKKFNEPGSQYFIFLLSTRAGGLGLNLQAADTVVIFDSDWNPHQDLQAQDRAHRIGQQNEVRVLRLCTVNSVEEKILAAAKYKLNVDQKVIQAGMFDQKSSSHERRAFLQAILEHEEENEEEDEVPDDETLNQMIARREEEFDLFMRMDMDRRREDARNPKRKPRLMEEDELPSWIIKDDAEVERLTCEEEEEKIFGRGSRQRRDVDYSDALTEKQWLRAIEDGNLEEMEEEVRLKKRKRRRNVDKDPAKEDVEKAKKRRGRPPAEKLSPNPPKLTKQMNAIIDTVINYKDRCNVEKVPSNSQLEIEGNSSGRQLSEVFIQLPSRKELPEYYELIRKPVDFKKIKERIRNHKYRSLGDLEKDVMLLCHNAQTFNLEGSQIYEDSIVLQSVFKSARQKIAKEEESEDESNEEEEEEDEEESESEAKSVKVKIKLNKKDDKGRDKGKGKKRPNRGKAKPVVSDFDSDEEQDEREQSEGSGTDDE

Compound `Cc1ncsc1-c1ccc([C@@H](C)NC(=O)[C@H]2C[C@H](O)CN2C(=O)[C@H](c2cc(OCCN3CCC(O)(CN4CC(Oc5cc(N6C7CCC6CN(c6cc(-c8ccccc8O)nnc6N)C7)ccn5)C4)CC3)no2)C(C)C)cc1` (mixture of isomers) [compound 446, rac-(2R,4S)-1-((2S)-2-(3-(2-(4-((3-((4-(3-(3-amino-6-(2-hydroxyphenyl)pyridazin-4-yl)-3,8-diazabicyclo[3.2.1]octan-8-yl)pyridin-2-yl)oxy)azetidin-1-yl)methyl)-4-hydroxypiperidin-1-yl)ethoxy)isoxazol-5-yl)-3-methylbutanoyl)-4-hydroxy-N-((R)-1-(4-(4-methylthiazol-5-yl)phenyl)ethyl)pyrrolidine-2-carboxamide] has a DC50 (degradation of BRM, read-out: BRM DC50) greater than 30 nM.
In the case of `Cc1ncsc1-c1ccc([C@H](C)NC(=O)[C@@H]2C[C@@H](O)CN2C(=O)[C@H](c2cc(OCCOCCOCCCCN3CC4(CCN(c5cc(-c6ccccc6O)nnc5N)CC4)C3)no2)C(C)C)cc1` [compound 71, (2S,4R)-1-((S)-2-(3-(2-(2-(4-(7-(3-amino-6-(2-hydroxyphenyl)pyridazin-4-yl)-2,7-diazaspiro[3.5]nonan-2-yl)butoxy)ethoxy)ethoxy)isoxazol-5-yl)-3-methylbutanoyl)-4-hydroxy-N-((S)-1-(4-(4-methylthiazol-5-yl)phenyl)ethyl)pyrrolidine-2-carboxamide], the DC50 [1] is reported as greater than 30 nM.
With `Cc1ncsc1-c1ccc([C@H](C)NC(=O)[C@@H]2C[C@@H](O)CN2C(=O)[C@H](c2cc(OCC[C@H]3CC[C@H](O[C@H]4C[C@H](Oc5cc(N6C7CCC6CN(c6cc(-c8ccccc8O)nnc6N)C7)ccn5)C4)CC3)no2)C(C)C)cc1` [compound 487, (2S,4R)-1-((2S)-2-(3-(2-((1R,4S)-4-((1r,3S)-3-((4-(3-(3-amino-6-(2-hydroxyphenyl)pyridazin-4-yl)-3,8-diazabicyclo[3.2.1]octan-8-yl)pyridin-2-yl)oxy)cyclobutoxy)cyclohexyl)ethoxy)isoxazol-5-yl)-3-methylbutanoyl)-4-hydroxy-N-((S)-1-(4-(4-methylthiazol-5-yl)phenyl)ethyl)pyrrolidine-2-carboxamide] the DC50 [2] was greater than 30 nM.
`Cc1ncsc1-c1ccc([C@H](CCCC(N)=O)NC(=O)[C@@H]2C[C@@H](O)CN2C(=O)[C@H](c2cc(OCCN3CCC(O[C@H]4C[C@H](Oc5cc(N6C7CCC6CN(c6cc(-c8ccccc8O)nnc6N)C7)ccn5)C4)CC3)no2)C(C)C)cc1` [compound 555, (2S,4R)-N-((S)-5-amino-1-(4-(4-methylthiazol-5-yl)phenyl)-5-oxopentyl)-1-((2S)-2-(3-(2-(4-((1r,3S)-3-((4-(3-(3-amino-6-(2-hydroxyphenyl)pyridazin-4-yl)-3,8-diazabicyclo[3.2.1]octan-8-yl)pyridin-2-yl)oxy)cyclobutoxy)piperidin-1-yl)ethoxy)isoxazol-5-yl)-3-methylbutanoyl)-4-hydroxypyrrolidine-2-carboxamide] was tested, and the DC50 [3] was greater than 30 nM.
Work on `Cc1ncn(C)c1-c1ccc([C@H](C)NC(=O)[C@@H]2C[C@@H](O)CN2C(=O)[C@H](c2cc(OCCN3CCC(O[C@H]4C[C@H](Oc5cc(N6C7CCC6CN(c6cc(-c8ccccc8O)nnc6N)C7)ccn5)C4)CC3)no2)C(C)C)cc1` [compound 365, (2S,4R)-1-((2S)-2-(3-(2-(4-((1r,3S)-3-((4-(3-(3-amino-6-(2-hydroxyphenyl)pyridazin-4-yl)-3,8-diazabicyclo[3.2.1]octan-8-yl)pyridin-2-yl)oxy)cyclobutoxy)piperidin-1-yl)ethoxy)isoxazol-5-yl)-3-methylbutanoyl)-N-((S)-1-(4-(1,4-dimethyl-1H-imidazol-5-yl)phenyl)ethyl)-4-hydroxypyrrolidine-2-carboxamide] yielded a DC50 [2] greater than 30 nM.
With `Cc1ncsc1-c1ccc([C@H](C)NC(=O)[C@@H]2C[C@@H](O)CN2C(=O)[C@@H](c2cc(N3CCC(CN4CCC(O[C@H]5C[C@H](Oc6cc(N7C8CCC7CN(c7cc(-c9ccccc9O)nnc7N)C8)ccn6)C5)CC4)CC3)no2)C(C)C)c(F)c1F` [compound 679, (2S,4R)-1-((2R)-2-(3-(4-((4-((1r,3r)-3-((4-(3-(3-amino-6-(2-hydroxyphenyl)pyridazin-4-yl)-3,8-diazabicyclo[3.2.1]octan-8-yl)pyridin-2-yl)oxy)cyclobutoxy)piperidin-1-yl)methyl)piperidin-1-yl)isoxazol-5-yl)-3-methylbutanoyl)-N-((S)-1-(2,3-difluoro-4-(4-methylthiazol-5-yl)phenyl)ethyl)-4-hydroxypyrrolidine-2-carboxamide] the DC50 [1] was less than 2.5 nM and the Dmax [4] was greater than 75%.
Compound `CC(C)C(C(=O)N1C[C@H](O)C[C@H]1C(=O)N[C@@H](C)c1ccc(C#N)cc1)c1cc(N2CCC(CN3CCC(O[C@H]4C[C@H](Oc5cc(N6C7CCC6CN(c6cc(-c8ccccc8O)nnc6N)C7)ccn5)C4)CC3)CC2)no1` (stereo partly drawn) [compound 639, (2S,4R)-1-((2S)-2-(3-(4-((4-((1r,3r)-3-((4-(3-(3-amino-6-(2-hydroxyphenyl)pyridazin-4-yl)-3,8-diazabicyclo[3.2.1]octan-8-yl)pyridin-2-yl)oxy)cyclobutoxy)piperidin-1-yl)methyl)piperidin-1-yl)isoxazol-5-yl)-3-methylbutanoyl)-N-((S)-1-(4-cyanophenyl)ethyl)-4-hydroxypyrrolidine-2-carboxamide] has a DC50 [1] greater than 30 nM.
In the case of `Cc1ncsc1-c1ccc([C@H](C)NC(=O)[C@@H]2C[C@@H](O)CN2C(=O)[C@@H](c2cc(OCCN3CCN(CC#CCN4CCOC5(CCN(c6cc(-c7ccccc7O)nnc6N)CC5)C4)CC3)no2)C(C)C)cc1` [compound 188, (2S,4R)-1-((R)-2-(3-(2-(4-(4-(9-(3-amino-6-(2-hydroxyphenyl)pyridazin-4-yl)-1-oxa-4,9-diazaspiro[5.5]undecan-4-yl)but-2-yn-1-yl)piperazin-1-yl)ethoxy)isoxazol-5-yl)-3-methylbutanoyl)-4-hydroxy-N-((S)-1-(4-(4-methylthiazol-5-yl)phenyl)ethyl)pyrrolidine-2-carboxamide], the DC50 [1] is reported as less than 2.5 nM and the Dmax (BRM degradation, SW1573 cells, tested at the top concentration of between 0.3 and 10 μM, read-out: Dmax (%) (% degraded)) is reported as greater than 75%.
With `Cc1ncsc1-c1ccc([C@H](C)NC(=O)[C@@H]2C[C@@H](O)CN2C(=O)[C@@H](c2cc(N3CCC[C@H](CN4CCC(O[C@H]5C[C@H](Oc6cc(N7C8CCC7CN(c7cc(-c9ccccc9O)nnc7N)C8)ccn6)C5)CC4)C3)no2)C(C)C)cc1` (single isomer, unassigned) [compound 656] the DC50 [1] was less than 2.5 nM and the Dmax [4] was greater than 75%.
In the case of `Cc1ncsc1-c1ccc([C@H](C)NC(=O)[C@@H]2C[C@@H](O)CN2C(=O)[C@@H](c2cc(N3CCC(OC4CCN(CC5CC(CN6CCC([C@@H](C)n7cc(-c8cc(-c9ccccc9O)nnc8N)cn7)CC6)C5)CC4)CC3)no2)C(C)C)cc1` (single isomer, unassigned) [compound 596], the Dmax (BRM degradation, SW1573 cells, Table 2D, read-out: **Dmax (%) (% degraded)) is reported as greater than 75% and the DC50 [3] is reported as less than 2.5 nM.
`Cc1ncsc1-c1ccc([C@H](C)NC(=O)[C@@H]2C[C@@H](O)CN2C(=O)[C@@H](NC(=O)COCCOCCOCCCCN2CCOC3(CCN(c4cc(-c5ccccc5O)nnc4N)CC3)C2)C(C)(C)C)cc1` [compound 51, (2S,4R)-1-[(2S)-2-(2-[2-[2-(4-[9-[3-amino-6-(2-hydroxyphenyl)pyridazin-4-yl]-1-oxa-4,9-diazaspiro[5.5]undecan-4-yl]butoxy)ethoxy]ethoxy]acetamido)-3,3-dimethylbutanoyl]-4-hydroxy-N-[(1S)-1-[4-(4-methyl-1,3-thiazol-5-yl)phenyl]ethyl]pyrrolidine-2-carboxamide] was tested, and the DC50 [1] was 10 to 30 nM and the Dmax (BRM degradation, SW1573 cells, when tested at the top concentration of between 0.3 and 10 μM, read-out: Dmax (%) (% degraded)) was greater than 75%.
